Among the test systems are NALL-1; MOLT-16; ALL-PO; KOPN-8; COG-LL-319h; TMD5; MOLT-4; KASUMI-2; TANOUE; 697; SEM cells; KASUMI-9; RCH-ACV; NALM-6; SUP-B15; LC4-1; PEER; CCRF-HSB2; MHH-CALL-4; KASUMI-10.
Common to all, as to experiment: selective drug sensitivity score (sDSS, relative to normal bone marrow) (sDSS (score)); higher = more potent and effective on the cell line relative to normal bone marrow cells
Settings in all cases: 72 h
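Note: ALL cell lines in 384-well plates, five doses spanning 10,000-fold, each plate scaled between vehicle and 100 µmol/L benzalkonium chloride controls, sDSS an adapted area-under-curve metric.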

As for `Nc1nc2cc(-c3ccc4ncc(C(=O)N5CCOCC5)n4c3)ccc2o1` [Serabelisib] (top concentration 10000 nM), the “selective drug sensitivity score” value is -0.64 in the test on NALL-1; -0.94 in the test with MOLT-16; 4.96 in the test on ALL-PO; 2.56 in the test with KOPN-8; -0.44 in the test on COG-LL-319h; -1.54 with TMD5. In addition, the “selective drug sensitivity score” value in the test with MOLT-4 is -1.54; with KASUMI-2, 2.96; with TANOUE, -1.54; in the test with 697, 2.96; in the test on SEM cells, 1.56; with KASUMI-9 it was 2.56. Also, the “selective drug sensitivity score” value with RCH-ACV was 6.56; with NALM-6 it was -1.44; with SUP-B15, 1.26; with LC4-1, 0.86; with PEER it was -1.04; with CCRF-HSB2 it was -1.24. Also, the “selective drug sensitivity score” value is 0.46 in the test on MHH-CALL-4 and -1.54 in the test on KASUMI-10.

Regarding `C#Cc1cccc(Nc2ncnc3cc4c(cc23)OCCOCCOCCO4)c1` [Icotinib] (top concentration 10000 nM), the “selective drug sensitivity score” value with NALL-1 was 6.5; in the test on MOLT-16, 2.2; in the test with ALL-PO it was 0.7; with KOPN-8, 5.7; with COG-LL-319h it was 1.8; in the test with TMD5, 7.5. For the same compound, the “selective drug sensitivity score” value worked out at 0.2 with MOLT-4; 2.9 with KASUMI-2; 0 in the test with TANOUE; 3.2 in the test on 697; 3 in the test on SEM cells; 4.9 in the test with KASUMI-9. Further, the “selective drug sensitivity score” value in the test with RCH-ACV was determined as 1.2; in the test on NALM-6, 0; in the test with SUP-B15, 1.2; in the test with LC4-1, 3.2; in the test with PEER, 0.7; with CCRF-HSB2, 2.6. For the same compound, the “selective drug sensitivity score” value with MHH-CALL-4 and in the test with KASUMI-10 was 0 throughout.

Take `COc1cc2c(Oc3ccc4[nH]c(C)cc4c3F)ncnc2cc1OCCCN1CCCC1` [Cediranib] (top concentration 1000 nM): the “selective drug sensitivity score” value in the test on NALL-1 is 0; in the test with MOLT-16, 0; with ALL-PO it was 0; with KOPN-8, 0; in the test with COG-LL-319h it was 0; in the test with TMD5 it was 3.6. Moreover, the “selective drug sensitivity score” value with MOLT-4 turned out to be 0.1; in the test on KASUMI-2 it was 0; with TANOUE, 0; in the test on 697, 0.9; in the test on SEM cells, 0.2; in the test on KASUMI-9, 3.6. For the same compound, the “selective drug sensitivity score” value with RCH-ACV came to 0; in the test on NALM-6, 0; in the test with SUP-B15, 0; in the test on LC4-1 it was 0; in the test on PEER it was 0; in the test with CCRF-HSB2, 3.4. Further, the “selective drug sensitivity score” value in the test on MHH-CALL-4 and with KASUMI-10 was 0 in each case.

For `CC1(C)NC(=O)N(c2ccc([N+](=O)[O-])c(C(F)(F)F)c2)C1=O` [Nilutamide] (top concentration 10000 nM), the “selective drug sensitivity score” value in the test with NALL-1 was 7.02; in the test on MOLT-16 it was 2.72; with ALL-PO, -0.08; with KOPN-8, -0.48; with COG-LL-319h it was -0.48; in the test on TMD5, 3.42. Also, the “selective drug sensitivity score” value in the test with MOLT-4 was -0.48; with KASUMI-2, -0.48; in the test with TANOUE, -0.48; with 697, 0.22; in the test with SEM cells it was -0.48; with KASUMI-9, -0.28. Moreover, the “selective drug sensitivity score” value was -0.48 in the test with RCH-ACV; 1.82 in the test on NALM-6; -0.48 in the test with SUP-B15; -0.48 with LC4-1; 0.32 in the test on PEER; -0.48 in the test with CCRF-HSB2. Also, the “selective drug sensitivity score” value in the test with MHH-CALL-4 was 2.02; in the test with KASUMI-10, 0.22.

With `C[C@H]1CNCCCN1S(=O)(=O)c1cccc2cncc(F)c12` [Ripasudil] (top concentration 10000 nM), the “selective drug sensitivity score” value was -0.22 in the test on NALL-1; -0.22 with MOLT-16; -0.22 in the test with ALL-PO; 0.88 with KOPN-8; 1.18 in the test with COG-LL-319h; 0.98 in the test with TMD5. Also, the “selective drug sensitivity score” value with MOLT-4 is -0.22; with KASUMI-2, -0.22; with TANOUE, -0.22; in the test with 697, 2.68; in the test with SEM cells it was -0.22; in the test with KASUMI-9, -0.22. Besides, the “selective drug sensitivity score” value with RCH-ACV was -0.22; in the test on NALM-6 it was -0.22; in the test with SUP-B15, 4.88; with LC4-1, -0.22; with PEER it was 1.88; with CCRF-HSB2, 1.58. The “selective drug sensitivity score” value was 0.18 in the test on MHH-CALL-4 and -0.22 with KASUMI-10.
